In US20200260724A1, “METHODS TO FORMULATE NEUTRAL ORGANIC COMPOUNDS WITH POLYMER NANOPARTICLES” (Vive Crop Protection Inc., priority 2010, published 2020):

Key:
[1] = Viscosity of solutions and dispersions in cP; type: physicochemical; conditions: temperature printed per sample, 23.1-26.0° C.
Procedure: Solid 2,4-dichlorophenoxyacetic acid (2,4-D) (0.158 g, 0.72 mmol) and fresh deionized water (50 mL) were added to a 100 mL glass beaker, along with a stir bar. The medium was connected to a pH meter and the reading was at 2.76. To the stirring dispersion, aqueous NaOH (10N) was added dropwise. As the pH increased, more solid 2,4-D dissolved the dispersion became more transparent. Eventually, all of the solid 2,4-D dissolved completely, and the solution appeared transparent. The pH and viscosity of the solution was measured at 10.76 and 0.93 cP at 25.4° C. For the reference, the viscosity of pure water was measured using the same instrument and shown a value of 0.92 cP at 26.4° C.

[2] = Pyrene fluorescent probe of nanoparticle microenvironment (I1/I3 ratio); type: physicochemical; conditions: pyrene emission, excitation 340 nm
Source text: The intensity ratio of the first and third vibronic bands (I1/I3) in the emission spectra of the pyrene monomer is very sensitive to the monomer's microenvironment, and can be used as a metric to gauge the hydrophobic nature of different polymer nanoparticles produced using the methods described in this patent.
The pyrene microenvironments from different polymer nanoparticles were probed for the following nanoparticles: Na^+-collapsed polyacrylic acid (Na-PAA), ZnO/polyacrylic nanoparticles (ZnO-PAA), Zn^2+-collapsed nanoparticles (Zn-PAA), Na^+-collapsed PMAA nanoparticles (Na-PMAA), Na^+-collapsed P(MAA-co-EA) nanoparticles (Na—P(MAA-EA), poly(vinyl pyrollidone)-collapsed polyacrylic acid nanoparticles (PVP/PAA). Aqueous pyrene-nanoparticle solutions were prepared as follows. 1.0 mg pyrene was dissolved in 10 mL discholormethane and was used as the stock pyrene solution (0.1 mg/mL). To prepare the aqueous pyrene-nanoparticle solutions, 10 micro liters of the stock pyrene solution was added to a 20 mL scintillation vial and was allowed to air dry in a fume hood for one hour. 80 mg of solid nanoparticles or polymer, 10 g of deionized water and a magnetic stir bar were then added to the vial. […] Emission spectra were measured on a Perkin Elmer LS 55 Luminescence Spectrometer using an excitation wavelength of 340 nm, having slit widths for both excitation and emission at 2.5 nm. […]

Row | SMILES | Viscosity of solution or nanoparticle dispersion [1] [cP] | I1/I3 ratio ([2]; pH 6-8) | I1/I3 ratio ([2]; pH 8-10)
1 | O=C(O)COc1ccc(Cl)cc1Cl [2,4-D, 2,4-dichlorophenoxyacetic acid] | 0.93 |  | 
2 | c1cc2ccc3cccc4ccc(c1)c2c34 [Pyrene - control, pyrene] |  | 1.68 | 1.70
